# Source: PMC6678630 (International Journal of Molecular Sciences, 2019)
# Experiments:
# [1] = biological target: T1, human glucagon receptor (GCGR) (Homo sapiens, UniProt P47871); experiment: CRE-Luc cAMP-responsive luciferase reporter assay, glucagon receptor; type: cell-based
# T1 construct: expressed in transfected cells; host or cells: HEK-293 (transient, with Cre-luc reporter)
# Description: (§1) The start codon of SYFP2 was replaced by PCR with an XbaI site, and a NotI site was inserted behind the stop codon of SYFP2. The resulting fusion of receptor-SYFP2 was cloned in pcDNA3.
# (§2) HEK-293 and Flip-In HEK-293 cells (Invitrogen) were cultured in Dulbecco’s modified Eagle’s media supplemented with 10% foetal calf serum, 100 U/mL penicillin and 100 µg/mL streptomycin. Cells were maintained at 37 °C in a humidified environment containing 5% CO2. HEK-293 cells were transiently transfected using Effectene (Qiagen, Hilden, Germany), following the manufacturer’s protocol. In order to generate stable cell lines Flip-In HEK-293 cells were transfected with the pcDNA5.FRT vector and pOG44 using Effectene. Stable isogenic clones were selected by the addition of hygromycin (100 µg/mL).
# (§3) Twenty-four hours after transfection, the cells were seeded into white 96-well plates (Thermo Scientific, Roskilde, Denmark). Twenty-four hours later, the cells were incubated for 3 h in medium containing peptide ligand and then lysed. Luciferase activity was quantified using LucLite reagent (PerkinElmer Life and Analytic Sciences, Wellesley, MA, USA).
# (§4) Dose-response curves represent the mean ± S.E.M from at least three independent experiments, each performed in triplicates. […] The dose-response data were fitted to a sigmoidal curve using nonlinear regression, and the EC50 values calculated with the aid of GraphPad 8.0 (GraphPad Dan Diego, CA, USA). The values in Table 1 represent the mean ± S.E.M calculated from the pEC50 (−logEC50) values from at least three independent experiments. Statistical analysis of significance was calculated with GraphPad 8.0 using a two˗tailed, unpaired Student’s t-test.
# human GIPR = biological target: T2, human GIPR (Homo sapiens, UniProt P48546); experiment: CRE-Luc cAMP-responsive luciferase reporter assay, GIP receptor; type: cell-based
# T2 construct: expressed in transfected cells; host or cells: HEK-293 (transient, with Cre-luc reporter)
# T2 sequence (P48546 22-466): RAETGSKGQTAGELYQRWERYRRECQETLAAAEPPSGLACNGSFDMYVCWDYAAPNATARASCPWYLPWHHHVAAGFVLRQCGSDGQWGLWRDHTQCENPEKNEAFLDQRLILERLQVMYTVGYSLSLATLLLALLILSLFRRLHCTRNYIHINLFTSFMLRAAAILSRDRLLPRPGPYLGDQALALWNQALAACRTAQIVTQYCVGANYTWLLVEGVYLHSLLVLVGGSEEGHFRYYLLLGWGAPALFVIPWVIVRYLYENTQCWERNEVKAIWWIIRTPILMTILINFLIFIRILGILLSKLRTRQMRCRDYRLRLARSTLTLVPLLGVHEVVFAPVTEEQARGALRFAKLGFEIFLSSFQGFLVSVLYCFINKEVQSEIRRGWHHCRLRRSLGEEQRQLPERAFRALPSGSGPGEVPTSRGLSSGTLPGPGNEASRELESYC
# Description: as §1, §2, §3, §4
# [2] = biological target: T3, human GLP-1R (GLP-1R-Nluc) (Homo sapiens, UniProt P43220); experiment: BRET Gαs recruitment to GLP-1 receptor; type: cell-based; settings: Gαs BRET (NES-Venus-Gαs), Flip-In HEK-293 cells stably expressing GLP-1R-Nluc, 15 min agonist; mean ± S.E.M., 4 independent experiments
# T3 construct: expressed in transfected cells; host or cells: Flp-In HEK-293 stably expressing GLP-1R-NLuc (pcDNA5-FRT); NES-Venus-Gαs transient
# Description: as §2, §4
# human GLP-1R = biological target: T4, human GLP-1R (Homo sapiens, UniProt P43220); experiment: CRE-Luc cAMP-responsive luciferase reporter assay, GLP-1 receptor; type: cell-based
# T4 construct: expressed in transfected cells; host or cells: HEK-293 (transient, with Cre-luc reporter)
# Description: as §1
# HEK-293 and Flip-In HEK-293 cells (Invitrogen) were cultured in Dulbecco’s modified Eagle’s media supplemented with 10% foetal calf serum, 100 U/mL penicillin and 100 µg/mL streptomycin. Cells were maintained at 37 °C in a humidified environment containing 5% CO2. HEK-293 cells were transiently transfected using Effectene (Qiagen, Hilden, Germany), following the manufacturer’s protocol. […]
# Twenty-four hours after transfection, the cells were seeded into white 96-well plates (Thermo Scientific, Roskilde, Denmark). […] Luciferase activity was quantified using LucLite reagent (PerkinElmer Life and Analytic Sciences, Wellesley, MA, USA).
# as §4
# GIPR = settings: cited from earlier work
# Source text: (§5) Several GLP-1R agonists (e.g., exenatide, liraglutide, and semaglutide) are currently used clinically to treat both T2DM and obesity. While they reduce mortality, improve glycemic control, reduce body weight and improve cardiovascular risk factors, the use of higher doses is often limited by adverse effects such as nausea and vomiting. There is therefore the potential to improve upon the current class of GLP-1R agonists. Targeting GIPR to treat T2DM and obesity has a somewhat contradictory history. Unlike GLP-1, pharmacological doses of exogenous GIP were not found to be ins ...
# rodent models = settings: ref [26],[27]; cited from earlier work
# Source text: as §5
# T1 sequence (P47871 26-477): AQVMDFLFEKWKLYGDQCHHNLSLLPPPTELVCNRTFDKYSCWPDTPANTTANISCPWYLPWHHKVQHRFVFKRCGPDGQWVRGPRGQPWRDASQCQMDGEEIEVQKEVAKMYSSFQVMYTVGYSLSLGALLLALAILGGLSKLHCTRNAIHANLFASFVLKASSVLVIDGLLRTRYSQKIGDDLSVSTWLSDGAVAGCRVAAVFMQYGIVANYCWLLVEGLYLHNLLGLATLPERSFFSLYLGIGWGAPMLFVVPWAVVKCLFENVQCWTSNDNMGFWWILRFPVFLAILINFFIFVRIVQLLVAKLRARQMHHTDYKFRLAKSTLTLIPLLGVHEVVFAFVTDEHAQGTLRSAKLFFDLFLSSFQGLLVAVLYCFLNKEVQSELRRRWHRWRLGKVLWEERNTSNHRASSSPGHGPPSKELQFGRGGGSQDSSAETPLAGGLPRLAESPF
# T4 sequence (P43220 24-463): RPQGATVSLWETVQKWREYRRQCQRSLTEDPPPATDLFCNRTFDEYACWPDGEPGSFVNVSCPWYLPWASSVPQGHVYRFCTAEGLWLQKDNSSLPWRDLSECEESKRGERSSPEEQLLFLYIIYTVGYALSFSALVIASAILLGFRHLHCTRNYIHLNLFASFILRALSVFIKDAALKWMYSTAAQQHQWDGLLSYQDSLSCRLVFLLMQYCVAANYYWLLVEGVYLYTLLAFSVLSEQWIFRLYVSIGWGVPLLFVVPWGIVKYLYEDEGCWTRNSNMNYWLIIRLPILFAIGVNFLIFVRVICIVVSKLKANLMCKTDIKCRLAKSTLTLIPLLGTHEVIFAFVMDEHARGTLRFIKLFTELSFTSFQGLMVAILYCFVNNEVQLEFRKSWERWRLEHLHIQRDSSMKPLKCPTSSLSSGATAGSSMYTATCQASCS
# T3 sequence (P43220 24-463): as above
molecule,measurement,setting,value
"CC[C@H](C)[C@H](NC(=O)[C@H](Cc1ccccc1)NC(=O)[C@H](CCC(=O)O)NC(=O)[C@H](CCCCN)NC(=O)[C@H](C)NC(=O)[C@H](C)NC(=O)[C@H](CCC(N)=O)NC(=O)CNC(=O)[C@H](CCC(=O)O)NC(=O)[C@H](CC(C)C)NC(=O)[C@H](Cc1ccc(O)cc1)NC(=O)[C@H](CO)NC(=O)[C@H](CO)NC(=O)[C@@H](NC(=O)[C@H](CC(=O)O)NC(=O)[C@H](CO)NC(=O)[C@@H](NC(=O)[C@H](Cc1ccccc1)NC(=O)[C@@H](NC(=O)CNC(=O)[C@H](CCC(=O)O)NC(=O)[C@H](C)NC(=O)[C@@H](N)Cc1c[nH]cn1)[C@@H](C)O)[C@@H](C)O)C(C)C)C(=O)N[C@@H](C)C(=O)N[C@@H](Cc1c[nH]c2ccccc12)C(=O)N[C@@H](CC(C)C)C(=O)N[C@H](C(=O)N[C@@H](CCCCN)C(=O)NCC(=O)N[C@@H](CCCNC(=N)N)C(=O)NCC(=O)O)C(C)C [GLP-1, Glucagon-like peptide-1]","activity at glucagon receptor, in words","[1]; CRE-Luc, HEK-293 cells, concentrations up to 1 µM",could not be detected
same,"activity at GIP receptor, in words","human GIPR; CRE-Luc, HEK-293 cells",Neither glucagon nor GLP-1 displayed any detectable activity
CC[C@H](C)[C@H](NC(=O)[C@H](CO)NC(=O)[C@H](Cc1ccc(O)cc1)NC(=O)[C@H](CC(=O)O)NC(=O)[C@H](CO)NC(=O)[C@@H](NC(=O)[C@H](Cc1ccccc1)NC(=O)[C@@H](NC(=O)CNC(=O)[C@H](CCC(=O)O)NC(=O)C(C)(C)NC(=O)[C@@H](N)Cc1ccc(O)cc1)[C@@H](C)O)[C@@H](C)O)C(=O)N[C@@H](Cc1ccc(O)cc1)C(=O)N[C@@H](CC(C)C)C(=O)N[C@@H](CC(=O)O)C(=O)N[C@@H](CCCCN)C(=O)N[C@@H](CCC(N)=O)C(=O)N[C@@H](C)C(=O)N[C@@H](C)C(=O)NC(C)(C)C(=O)N[C@@H](CCC(=O)O)C(=O)N[C@@H](Cc1ccccc1)C(=O)N[C@H](C(=O)N[C@@H](CC(N)=O)C(=O)N[C@@H](Cc1c[nH]c2ccccc12)C(=O)N[C@@H](CC(C)C)C(=O)N[C@@H](CC(C)C)C(=O)N[C@@H](C)C(=O)NCC(=O)NCC(=O)N1CCC[C@H]1C(=O)N[C@@H](CO)C(=O)N[C@@H](CO)C(=O)NCC(=O)N[C@@H](C)C(=O)N1CCC[C@H]1C(=O)N1CCC[C@H]1C(=O)N1CCC[C@H]1C(=O)N[C@@H](CO)C(=O)N[C@@H](CCCCN)C(N)=O)C(C)C [P18],EC50,[2],0.0398 µM
same,EC50,[1],12.6 µM
same,"Emax (% Glucagon), Glucagon Receptor","[1]; maximum luciferase activity as a percentage of glucagon, HEK-293 cells, 3 h incubation, mean ± S.E.M., at least 3 independent experiments, ND = no detectable activity at 1 µM, P18 p < 0.0001 vs glucagon",22.6 ± 1.96 d % Glucagon
same,"Emax (% GIP), GIP Receptor","human GIPR; maximum luciferase activity as a percentage of GIP, HEK-293 cells, 3 h incubation, mean ± S.E.M., at least 3 independent experiments, ND = no detectable activity at 1 µM",94.4 ± 4.09 % GIP
same,EC50,"human GIPR; −logEC50/M, CRE-Luc in transiently transfected HEK-293 cells, 3 h incubation, mean ± S.E.M., at least 3 independent experiments in triplicate, ND = no detectable activity at 1 µM, P18 p < 0.05 vs GIP, read-out: pEC50, GIP Receptor (converted)",0.0158 µM
same,EC50,human GLP-1R,0.0002 µM
same,"Emax (% GLP-1), GLP-1 Receptor","human GLP-1R; maximum luciferase activity as a percentage of GLP-1, HEK-293 cells, 3 h incubation, mean ± S.E.M., at least 3 independent experiments, ND = no detectable activity at 1 µM, glucagon p < 0.01 vs GLP-1",106 ± 10.7 % GLP-1
"Pro3GIP: derivative of GIP with a glutamic acid to proline substitution at position three (YAPGTFISDYSIAMDKIHQQDFVNWLLAQKGKKNDWKHNITQ; Gastric inhibitory polypeptide; UniProt P09681 52-93, looked up, variant E3P)","initially reported activity at GIPR, in words","GIPR; initial report, later contradicted, ref [26],[27]",GIPR antagonist
same,"activity at GIPR, in words","GIPR; ref [28],[29]",low potency GIPR agonist
same,protection against diabetes and obesity,rodent models,protective against diabetes and obesity in rodent models
